Assay results as given in patent US11203577B2, “Sulfonyl-structure-containing triazinone derivatives, their preparation methods and their uses in insect killing and/or bacterium killing” (Nankai University, priority 2017, dated 2021).
Read-outs that look alike come from different tables or passages of the source.

Assays:
Cucumber fusarium wilt = assay: In vitro fungicidal activity, PDA colony diameter; type: cell-based; conditions: 96 h, 50 mg/kg, inhibition of colony diameter, read-out: Fungicidal activity (%) Cucumber fusarium wilt
Wheat sheath blight = assay: In vitro fungicidal activity, PDA colony diameter; type: cell-based; conditions: 50 mg/kg, inhibition of colony diameter; read-out: Fungicidal activity (%) Wheat sheath blight
Sclerotinia rot of colza = assay: In vitro fungicidal activity, PDA colony diameter; type: cell-based; conditions: 96 h, 50 mg/kg, inhibition of colony diameter, read-out: Fungicidal activity (%) Sclerotinia rot of colza
Tomato early blight = assay: In vitro fungicidal activity, PDA colony diameter; type: cell-based, Alternaria solani; conditions: 50 mg/kg, inhibition of colony diameter; read-out: Fungicidal activity (%) Tomato early blight
[1] = tested on: Capsicum phytophthora blight; assay: In vitro fungicidal activity, PDA colony diameter; type: cell-based; conditions: 96 h
Procedure, shortened: (§1)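 Mycelial plugs cut from the edge of 7-day PDA colonies placed on PDA containing 50 mg/kg compound or on compound-free PDA, grown 4 days. Colony diameters measured; percent inhibition calculated against untreated control.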

Apple ring rot = assay: In vitro fungicidal activity, PDA colony diameter; type: cell-based; conditions: inhibition of colony diameter
Procedure, shortened: as §1

Potato late blight = assay: microbe, parasite or virus in culture; type: cell-based; conditions: Phytophthora infestans, 96 h, read-out: Fungicidal activity (%) Potato late blight
[2] = tested on: Cercospora brown spot of peanut; assay: In vitro fungicidal activity, PDA colony diameter; type: cell-based; conditions: 96 h, 50 mg/kg, inhibition of colony diameter, read-out: Fungicidal activity (%) Cercospora brown spot of peanut
[3] = tested on: mosquito larvae (Culer pipiens pallens); assay: Test of insecticidal activity against mosquito larvae (checked after 24 h)
Procedure: Method of testing against mosquito larvae: the tested mosquito larvae are Culer pipiens pallens, a normal colony fed indoor. About 5 mg compound to be tested is weighed and loaded into a penicillin vial, 5 mL acetone (or an appropriate solvent) is added into the vial, and the vial is oscillated to dissolve the compound; thus, 1,000 ppm mother liquid is obtained. 1 mL mother liquid is weighed and added into a 100 mL beaker filled with 89 mL water, 10 mosquito larvae in the early stage of the 4th instar together with 10 mL feeding solution are poured into the beaker; thus, the concentration of the pesticide solution is 10 ppm (the pesticide solutions with other concentrations are attained by diluting the mother liquid by corresponding times). […] Water solution that contains 0.5 mL test solvent is used as a blank sample.

Watermelon anthracnose = assay: In vitro fungicidal activity, PDA colony diameter; type: cell-based; conditions: 50 mg/kg, inhibition of colony diameter; read-out: Fungicidal activity (%) Watermelon anthracnose
Wheat head blight = assay: whole plant or invertebrate; type: cell-based; conditions: Triticum aestivum, read-out: Fungicidal activity (%) Wheat head blight
[4] = tested on: bean aphides (Aphis laburni Kaltenbach); assay: Test of insecticidal activity against aphides (leaf immersion, checked after 96 h); conditions: for mortality at 5 mg/kg / mortality at 10 mg/kg / mortality at 100 mg/kg / mortality at 600 mg/kg: Aphis, 96 h, read-out: Mortalities (%) against aphides; for insecticidal activity against aphides compared with pymetrozine: 5 mg/kg
Procedure: The insecticidal activity against aphides is tested through the following steps: the tested aphides are bean aphides (Aphis laburni Kaltenbach), a normal colony fed with broad bean leaves in a laboratory. The pesticide is weighed, 1 mL DMF is added to dissolve the pesticide, then two drops of emulsifier, Tween-20 are added, and distilled water is added in an appropriate amount; the mixture is stirred to a homogeneous state to prepare pesticide solution at required concentration (see the following table for the specific concentration). […] In a control group, only emulsifier and solvent are added into distilled water, and the mixture is stirred to a homogeneous state.

Maize borers = assay: Test of insecticidal activity against maize borers (leaf immersion); conditions: read-out: Mortalities (%) Maize borers
[5] = tested on: Corn southern leaf blight; assay: In vitro fungicidal activity, PDA colony diameter; type: cell-based; conditions: 50 mg/kg, inhibition of colony diameter; read-out: Fungicidal activity (%) Corn southern leaf blight
Cotton bollworms = assay: Test of insecticidal activity against cotton bollworms (pesticide mixed into feedstuff); conditions: read-out: Mortalities (%) Cotton bollworms
Procedure: Method of testing against cotton bollworms: the pesticide is mixed into the feedstuff, i.e., 3 mL prepared solution is added into about 27 g freshly prepared feedstuff; thus, required concentration is obtained by diluting by 10 times.

Rice sheath blight = assay: In vitro fungicidal activity, PDA colony diameter; type: cell-based; conditions: read-out: Fungicidal activity (%) Rice sheath blight
Armyworms = assay: Test of insecticidal activity against armyworms (leaf immersion); conditions: 600 mg/kg, 3-4 days
Rice bakanae disease = assay: In vitro fungicidal activity, PDA colony diameter; type: cell-based; conditions: 50 mg/kg, inhibition of colony diameter; read-out: Fungicidal activity (%) Rice bakanae disease
[6] = 24 h, read-out: Mortalities (%) against mosquito larvae
[7] = 50 mg/kg, inhibition of colony diameter

SMILES	inhibition of growth at 50 mg/kg (Cucumber fusarium wilt) [%]	inhibition at 50 mg/kg (Wheat sheath blight) [%]	inhibition of growth at 50 mg/kg (Sclerotinia rot of colza) [%]	inhibition at 50 mg/kg (Tomato early blight) [%]	inhibition of growth at 50 mg/kg [1] [%]	inhibition at 50 mg/kg (Apple ring rot) [%]	inhibition of growth at 50 mg/kg (Potato late blight) [%]	inhibition of growth at 50 mg/kg [2] [%]	mortality at 10 mg/kg [3, 6] [%]	inhibition at 50 mg/kg (Watermelon anthracnose) [%]	inhibition at 50 mg/kg (Wheat head blight) [%]	mortality at 10 mg/kg [4] [%]	mortality at 100 mg/kg [4] [%]	mortality at 600 mg/kg [4] [%]	mortality at 600 mg/kg (Maize borers) [%]	inhibition at 50 mg/kg [5] [%]	mortality at 600 mg/kg (Cotton bollworms) [%]	inhibition at 50 mg/kg (Rice sheath blight; [7]) [%]	Mortalities (%) Armyworms (Armyworms) [%]	inhibition at 50 mg/kg (Rice bakanae disease) [%]	also measured
CC(=O)Nc1ccc(S(=O)(=O)NN2CC(C)=NNC2=O)cc1 [Ia-24, N-(4-(N-(6-methyl-3-oxo-2,3-dihydro-1,2,4-triazin-4(5H)-yl)sulfamyl)phenyl)acetamide]	0	52.3	40	23.8	24.5	13.8	22.2	15.8	100	12.5	6.7	75	95	100	5	25	50	50.8	5	27.8	mortality at 5 mg/kg [3, 6]: 45%; mortality at 5 mg/kg [4]: 10%
CC1=NNC(=O)N(NS(=O)(=O)c2ccc(C#N)cc2)C1 [Ia-25, 4-cyano-N-(6-methyl-3-oxo-2,3-dihydro-1,2,4-triazin-4(5H)-yl)-benzenesulfonamide]	8.8	14.3	26.3	16.4	22.2	4.1	18.7	12	100	24.6	5.4	85	100	100	25	0	35	13.9	10	17.2	mortality at 2 mg/kg [3, 6]: 40%; mortality at 5 mg/kg [3, 6]: 100%; insecticidal activity against aphides compared with pymetrozine [4]: equivalent to the insecticidal activity of pymetrozine; mortality at 5 mg/kg [4]: 20%
CC1=NNC(=O)N(NS(=O)(=O)c2ccc(C(F)(F)F)cc2)C1 [Ia-26, N-(6-methyl-3-oxo-2,3-dihydro-1,2,4-triazin-4(5H)-yl)-4-(trifluoromethyl)-benzenesulfonamide]	2.9	0	15.8	13.4	27.8	23	34.3	12	100	34.4	13.5	100	100	100	40	6.3	0	20.9	45	17.2	mortality at 1 mg/kg [3, 6]: 20%; mortality at 2 mg/kg [3, 6]: 100%; mortality at 5 mg/kg [3, 6]: 100%; insecticidal activity against mosquito larvae ([3]; in vivo): relatively high insecticidal activity; insecticidal activity against aphides compared with pymetrozine [4]: equivalent to the insecticidal activity of pymetrozine; mortality at 5 mg/kg [4]: 30%
CC1=NNC(=O)N(NS(=O)(=O)c2ccc(OC(F)(F)F)cc2)C1 [Ia-27, N-(6-methyl-3-oxo-2,3-dihydro-1,2,4-triazin-4(5H)-yl)-4-(trifluoromethoxy)-benzenesulfonamide]	0	4.3	15.8	16.4	27.8	24.3	28.1	12	100	16.4	16.2	100	100	100	15	15.6	25	17.4	5	17.2	mortality at 2 mg/kg [3, 6]: 20%; mortality at 5 mg/kg [3, 6]: 90%; insecticidal activity against aphides compared with pymetrozine [4]: equivalent to the insecticidal activity of pymetrozine; mortality at 5 mg/kg [4]: 35%
CC1=NNC(=O)N(NS(=O)(=O)c2cccs2)C1 [Ia-28, N-(6-methyl-3-oxo-2,3-dihydro-1,2,4-triazin-4(5H)-yl)-thienyl-2-sulfonamide]	0	8.7	15.8	23.9	25	0	0	12	100	0	8.1	65	100	100	5	18.7	10	17.4	5	17.2	mortality at 5 mg/kg [3, 6]: 20%
CC1=NNC(=O)N(NS(=O)(=O)c2ccsc2)C1 [Ia-29, N-(6-methyl-3-oxo-2,3-dihydro-1,2,4-triazin-4(5H)-yl)-thienyl-3-sulfonamide]	12.8	20.8	12.5	25	23.1	52.4	23.8	19.2	35	18.8	21.2	30	85	95	15	13.9	20	35.7	10	3.7	
CC1=NNC(=O)N(NS(=O)(=O)c2c(C)noc2C)C1 [Ia-30, 3,5-dimethyl-N-(6-methyl-3-oxo-2,3-dihydro-1,2,4-triazin-4(5H)-yl)-isoxazolyl-4-sulfonamide]	23.1	7.5	12.5	20	11.5	23.8	14.3	19.2	35	25	12.1		45	95	15	19.4	25		20	14.8	inhibition at 50 mg/kg (Rice sheath blight): 14.3%
